{"source": "patent US7390507B2", "about": "“Compositions and methods for the treatment of radiation burns and other traumatic skin conditions” (priority 2004, dated 2008)", "origin": "cited, not measured here", "key": {"[1]": {"conditions": "in vivo"}}, "data": [{"smiles": "NCCCNCCSP(=O)(O)O", "note": "[amifostine]", "values": [{"measurement": "dermato-cytoprotective effect", "setting": "retrospective analysis", "result": "significant dermato-cytoprotective effect"}]}, {"smiles": "O=C(O)CCCCC1CCSS1", "note": "(stereo not drawn) [Alpha-Lipoic Acid]", "values": [{"measurement": "effect on skin ageing / wrinkles", "setting": "[1]", "result": "some effect"}]}, {"smiles": "O=C1O[C@H]([C@@H](O)CO)C(O)=C1O", "note": "[topical Vitamin C, Vitamin C]", "values": [{"measurement": "improvement in the results of irradiated breast tissue", "setting": "human, in vivo", "result": "without improvement"}]}]}
